Consider five compounds from US20080188513A1, “1-(2-Methylpropyl)-1H-Imidazo[4,5-C](1,5]Naphthyridin-4-Amine Ethanesulfonate and 1-(2-Methylpropyl)-1H-Imidazo[4,5-C](1,5]Naphthyridin-4-Amine Methanesulfonate” (taked Pharmaceutical Company Limited, priority 2004, published 2008).

Data set [1] can be described thus: In-situ salt selection test carried out in water. The format is physicochemical. The settings on record: for aqueous solubility (in words): summary statement; for Appearance: appearance of the resulting solution after 24 hours at 25° C., in water; for solubility at 24 h: water (salt formed in situ with aqueous acid), thermodynamic from solid. As for the experimental part: Aqueous solutions (0.5 molar (M)) of ethanesulfonic acid, methanesulfonic acid, and hydrochloric acid were prepared. For ethanesulfonic acid and methanesulfonic acid, the neat acid (0.05 mol) was dissolved in water (100 mL) to prepare the solutions. Hydrochloric acid (1 normal (N)) was diluted with water to prepare 0.5 M hydrochloric acid. The free base of 1-(2-methylpropyl)-1H-imidazo[4,5-c][1,5]naphthyridin-4-amine in an amount indicated in the following Table 1 was added to a vial, and the acidic solution from the following Table 1 (1.05 equivalent) was added. The vial was capped and shaken at 25° C. in a water bath for 24 hours. The resulting salt mixture or solution was filtered through Whatman No. 5 filter paper, and 1 mL of the filtrate was diluted with methanol (10 mL) to provide a specimen for analysis. The solubility of the salt in water was determined for each specimen by analyzing for soluble salt content by reverse phase high performance liquid chromatography (HPLC) using the following method.
A diluent was prepared by dissolving phosphoric acid (1 mL of 85%) in HPLC grade water (1 L). The resulting solution was mixed in a 60:40 ratio with acetonitrile. Each specimen was diluted to a volume of 50.0 mL with the diluent to provide a sample having a concentration of less than or equal to (≦) 50 micrograms per milliliter (μg/mL).
An external standard was prepared by dissolving 1-(2-methylpropyl)-1H-imidazo[4,5-c][1,5]naphthyridin-4-amine free base (25 mg) in methanol (30 mL) with the aid of sonication and then diluting to a volume of 50.0 mL with methanol to provide a stock solution. Diluent was added to 5 mL of the stock solution to a volume of 50.0 mL.
A Waters LC Module 1 HPLC system equipped with an autosampler, a reproducible injector, a UV detector (326 nm wavelength), and Turbochrom data acquisition software was used with a ZORBAX Bonus-RP C14, 15 cm×4.6 mm column with 5 μm packing. The mobile phase was prepared by dissolving 1-octanesulfonate, sodium salt (2.00 g) and phosphoric acid (1 mL of 85%) in HPLC grade water (1 L) and mixing the resulting solution in a 65:35 ratio with HPLC grade acetonitrile. A flow rate of 1.0 mL/min was used.
The column was equilibrated with the mobile phase, and the system was tested using six 20 μL injections of the external standard to ensure that the relative standard deviation for the peak areas was less than or equal to (≦) 1.5%. An injection of each sample (20 μL) was tested in comparison to a standard. The concentration, in percentage, of 1-(2-methylpropyl)-1H-imidazo[4,5-c][1,5]naphthyridin-4-amine in solution was then calculated using the following operation: {[peak area of the sample/weight of the sample (mg)]/[peak area of the standard/weight of the standard (mg)]average}×100. The solubility of the salt, presented in the following Table 1, can then be calculated using the equations presented by Tong, W. Q., and Whitesell, G, Pharmaceutical Development and Technology, 3(2), pp. 215-223 (1998).

The nature of data set [2]: Aqueous solubility of the free base measured potentiometrically as a function of pH (p-SOL microtitrator). The settings on record: saline or isotonic, thermodynamic from solid, 0.15 M aqueous potassium chloride, potentiometric titration, read-out: intrinsic solubility (So). The format is physicochemical. As for the experimental part: (§1) The aqueous solubility of 1-(2-methylpropyl)-1H-imidazo[4,5-c][1,5]naphthyridin-4-amine free base was measured potentiometrically as a function of pH. […] The titration was carried out on a sample approximately 3 mg in size. […] The pKa of 1-(2-methylpropyl)-1H-imidazo[4,5-c][1,5]naphthyridin-4-amine, determined potentiometrically in a separate experiment to be 6.1, was used in the calculation to determine the intrinsic solubility. The curve showing solubility as a function of pH for 1-(2-methylpropyl)-1H-imidazo[4,5-c][1,5]naphthyridin-4-amine free base is shown in FIG. 5.

In data set [3] the test system is cytokine biosynthesis. To be noted: U.S. Pat. No. 6,194,425; cited from earlier work.
The nature of data set [4]: pKa determined potentiometrically. The format is physicochemical. The settings on record: determined potentiometrically in a separate experiment. The procedure:
as §1

Data set [5] is described as follows: Physical and chemical stability in solid form. The format is physicochemical.
For data set [6], the system named is interferon (α) and tumor necrosis factor (α) secreted by peripheral blood mononuclear cells (PBMC). Put plainly: Cytokine induction in human cells (PBMC). The format is cell-based. The settings on record: 18 to 24 hours, 30-0.014 μM. The text has this:
An in vitro human blood cell system is used to assess cytokine induction. Activity is based on the measurement of interferon (α) and tumor necrosis factor (α) (IFN and TNF, respectively) secreted into culture media as described by Testerman et al. in “Cytokine Induction by the Immunomodulators Imiquimod and S-27609,” Journal of Leukocyte Biology, 58, 365-372 (September, 1995).
Whole blood from healthy human donors is collected by venipuncture into EDTA vacutainer tubes. Peripheral blood mononuclear cells (PBMC) are separated from whole blood by density gradient centrifugation using HISTOPAQUE-1077. […]
Following incubation the plates are centrifuged for 10 minutes at 1000 revolutions per minute (rpm) (approximately 200×g) at 4° C. […] The samples are analyzed for interferon (α) by ELISA and for tumor necrosis factor (α) by ELISA or IGEN Assay.
Interferon (α) concentration is determined by ELISA using a Human Multi-Species kit from PBL Biomedical Laboratories, New Brunswick, N.J. Results are expressed in pg/mL.
Tumor necrosis factor (α) (TNF) concentration is determined using ELISA kits available from Biosource International, Camarillo, Calif. Alternately, the TNF concentration can be determined by ORIGEN M-Series Immunoassay and read on an IGEN M-8 analyzer from IGEN International, Gaithersburg, Md. […]

Data set [7] can be described thus: In-situ salt selection test carried out in water with a cosolvent. The format is physicochemical. To be noted: 25 °C, aqueous with cosolvent or surfactant or cyclodextrin, thermodynamic from solid, final acid concentration 0.05 M.
Where [8] appears, read: salt formed in situ in water, shaken at 25° C. for 24 hours, filtrate by HPLC.
Where [9] appears, read: 5% (w/w) diethylene glycol monoethyl ether in water.
The mark [10] stands for this setting: 5% (w/w) propylene glycol in water.

≈ marks a conversion by molar mass, not a printed value. Where “and” joins values, the source holds several entries; their conditions need not be identical. Equal entries are not always repeated.

Regarding `CC(C)Cn1cnc2c(N)nc3cccnc3c21.CCS(=O)(=O)O.O` (hydrate or solvate), the melting point – broadly, the temperature, or range, at which the solid turns liquid – was 221.5 to 223.4 °C and 220 to 221 °C.

For `CC(C)Cn1cnc2c(N)nc3cccnc3c21` [1-(2-methylpropyl)-1H-imidazo[4,5-c][1,5]naphthyridin-4-amine], the “aqueous solubility (in words)” value in data set [1] is recorded as “particularly low aqueous solubility”. Also, the solubility (as a rule, the dissolved amount per volume that the medium holds) in data set [2] was found to be 0.003 mg/mL (≈ 12.4 µM). The “ability to induce cytokine biosynthesis” value in data set [3] is “ability to induce cytokine biosynthesis”. Besides, the pKa (in general, the pH at which an ionisable group is half protonated) in data set [4] amounted to 6.1.

As for `CC(C)Cn1cnc2c(N)nc3cccnc3c21.CCS(=O)(=O)O` [Ethanesulfonic, 1-(2-methylpropyl)-1H-imidazo[4,5-c][1,5]naphthyridin-4-amine ethanesulfonate], the Appearance entry in data set [1] is listed as “Clear”. The “aqueous solubility (in words)” value in data set [1] is listed as “good aqueous solubility”. Besides, the solubility at 24 h in data set [1] (setting [8]) is 24.4 mg/mL; in data set [7] (setting [9]), 10.5 mg/mL; in data set [7] (setting [10]) it was over 10.1 mg/mL. Moreover, the “physical and chemical stability in solid form” value in data set [5] is “good physical and chemical stability in solid form”. The “induction of interferon α and/or tumor necrosis factor α production” value in data set [6] is reported as “inducing the production of interferon α and/or tumor necrosis factor α”.

Regarding `CC(C)Cn1cnc2c(N)nc3cccnc3c21.Cl` [Hydrochloric, hydrochloride salt of 1-(2-methylpropyl)-1H-imidazo[4,5-c][1,5]naphthyridin-4-amine, reference compound], in data set [1], the Appearance result is listed as “Milky,” and the “aqueous solubility (in words)” value is “low aqueous solubility”. The “solubility” value in data set [1] (setting [8]) is listed as 0.39 mg/mL.

Turning to `CC(C)Cn1cnc2c(N)nc3cccnc3c21.CS(=O)(=O)O` [Methanesulfonic, 1-(2-methylpropyl)-1H-imidazo[4,5-c][1,5]naphthyridin-4-amine methanesulfonate], the Appearance result in data set [1] is reported as “Translucent”. In data set [1], the “aqueous solubility (in words)” value is recorded as “good aqueous solubility”. Besides, the solubility at 24 h in data set [1] (setting [8]) is 15.2 mg/mL; in data set [7] (setting [9]), 10.5 mg/mL; in data set [7] (setting [10]), 10.3 mg/mL. Also, in data set [5], the “physical and chemical stability in solid form” value was “good physical and chemical stability in solid form”.
